Data published in patent US20100222396A1 (Novartis AG, priority 2009, published 2010).

Key:
[1] = target: T1, human orexin 1 receptor (hOx1R) (Homo sapiens, UniProt O43613); experiment: Radioligand binding assay ([125I]orexin A competition), hOx1R; details: CHO or HEK cell membranes, 1 h room temperature
T1 construct: expressed in transfected cells
T1 sequence (O43613 1-425): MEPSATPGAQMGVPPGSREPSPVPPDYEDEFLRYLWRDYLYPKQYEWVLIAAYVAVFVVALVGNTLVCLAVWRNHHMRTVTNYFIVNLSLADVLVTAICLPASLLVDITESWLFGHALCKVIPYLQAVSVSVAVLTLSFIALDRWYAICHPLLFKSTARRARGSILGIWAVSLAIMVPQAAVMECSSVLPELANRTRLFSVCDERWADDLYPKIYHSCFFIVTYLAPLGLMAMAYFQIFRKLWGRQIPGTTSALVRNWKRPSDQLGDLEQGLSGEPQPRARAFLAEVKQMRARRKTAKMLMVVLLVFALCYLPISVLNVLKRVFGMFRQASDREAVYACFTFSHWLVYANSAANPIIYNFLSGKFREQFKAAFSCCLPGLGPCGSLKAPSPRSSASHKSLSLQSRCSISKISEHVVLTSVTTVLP
Procedure: (§1) For crude cell membrane preparations, cells (CHO, Chinese hamster ovary or HEK, human embryonic kidney) expressing human orexin 1 or human orexin 2 receptors, were washed with HEPES (10 mM, pH 7.5), scraped off the culture plates with the same buffer, and centrifuged at 4° C. for 5 min at 2500×g. The cell pellet was either stored at −80° C. or used directly. Before the experiments, cell membranes were re-suspended in binding assay buffer (10 mM HEPES, 0.5% (w/v) bovine serum albumin, pH 7.5) by homogenisation with a Polytron homogeniser at 50 Hz for 20 s. Cell membranes were also used as made available by commercial providers.
(§2) In initial saturation experiments (to calculate Bmax), cell homogenates (150 μl) were incubated with 25-300 pM of the radioligand ([^125I]orexin A, 50 μl), 8 concentrations in triplicates in the presence or absence Orexin A (1 μM, 50 μl) to define non specific binding. Bound radioactivity was measured, and data were analysed with the program XLFIT or Graphpad Prism. Protein concentration was determined according to the Bradford/BioRad Protein Assay Kit.
(§3) In competition experiments, cell homogenates (150 μl) were incubated in assay buffer (10 mM HEPES, pH 7.5, 0.5% (w/v) bovine serum albumin, 5 mM MgCl2, […], and tween 0.05%) for 1 h at room temperature with about […] of the radioligand ([^125I]orexin A, 2100 Ci/mmole, 50 μl), and with various concentrations of compounds of the invention (50 μl) in triplicates; non-specific binding was determined in the presence of Orexin A (1 μM). Reactions were terminated by vacuum filtration, 3 washes of ice cold wash buffer (Tris-HCl pH 7.4/10 mM, with NaCl 154 mM). Competition data is expressed in Table 1 as Kd [μM].

[2] = target: T1, human orexin 1 receptor (hOx1R); experiment: Calcium accumulation in cells (FLIPR), antagonism of orexin A, hOx1R; type: cell-based; details: for Kd: cells expressing human orexin 1 receptor, IC50 vs orexin A converted by Cheng and Prusoff correction; for inhibition at 10 µM: measured at a concentration of 10 μM of compound (cells marked ^a)
Procedure: (§4) Cells expressing human orexin 1 or human orexin 2 receptors, were seeded at 8,000 cells/well in 384 well black-walled clear bottom, poly-D-lysine coated plates. After 24 h, the medium was removed and cells were washed once with phosphate buffered saline and serum-deprived overnight in assay buffer (130 mM NaCl, 5.4 mM KCl, 1.8 mM CaCl2, 0.8 mM MgSO4, 0.9 mM NaH2PO4, 25 mM glucose, 20 mM HEPES, pH 7.4) containing bovine serum albumin (1% w/v).
(§5) On the day of the experiment, the cells seeded in black plates were treated with assay buffer containing the Ca^2+ sensitive fluorescent dye Fluo-4-AM (2 μM), and probenecid (0.1 mM). After 1 h plates were washed twice with, and resuspended in, assay buffer containing probenecid (0.1 mM) using a multi plate washer. The plates were placed into a FLIPR II (Fluorometric Imaging Plate Reader, Molecular Devices, Sunnyvale, Calif., USA) and baseline fluorescence (fluorescence light units, FLU) was measured (5 measurements, 2 S each; laser excitation 488 nm at 0.6-1 W, CCD camera exposure 0.4 s) before addition of buffer alone (basal) or containing test compounds (either compound of formula I alone, agonist alone or agonist in the presence of various concentrations of compounds of formula I). Fluorescence measurements were then continued every 1 S for 120 S followed by every 4 S for 240 S.
(§6) The measurements were typically made in two sequences:
(§7) Compounds of formula I were tested usually in a concentration range from 10^−9 M to 10^−5 M.
(§8) In the second round, performed one hour later (to allow for equilibration), Orexin A was tested either in the absence (calibration curves, Orexin A agonist controls) or in the presence of compounds of formula I to determine antagonism.

[3] = target: T2, human orexin 2 receptor (hOx2R) (Homo sapiens, UniProt O43614); experiment: Radioligand binding assay ([125I]orexin A competition), hOx2R; details: CHO or HEK cell membranes, 1 h room temperature
T2 construct: expressed in transfected cells
T2 sequence (O43614 1-444): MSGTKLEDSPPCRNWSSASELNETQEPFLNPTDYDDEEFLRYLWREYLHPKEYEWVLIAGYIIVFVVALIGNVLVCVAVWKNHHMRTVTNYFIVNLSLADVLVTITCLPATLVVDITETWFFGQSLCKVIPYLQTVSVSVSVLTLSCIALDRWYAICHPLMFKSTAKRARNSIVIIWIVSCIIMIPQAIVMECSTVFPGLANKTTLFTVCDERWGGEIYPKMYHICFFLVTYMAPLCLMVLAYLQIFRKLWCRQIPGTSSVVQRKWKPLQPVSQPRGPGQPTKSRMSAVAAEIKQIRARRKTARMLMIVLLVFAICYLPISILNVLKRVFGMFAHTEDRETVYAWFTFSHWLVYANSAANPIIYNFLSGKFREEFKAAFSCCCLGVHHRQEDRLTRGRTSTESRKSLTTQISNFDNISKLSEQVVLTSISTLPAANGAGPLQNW
Procedure: as §1, §2, §3

[4] = target: T2, human orexin 2 receptor (hOx2R); experiment: Calcium accumulation in cells (FLIPR), antagonism of orexin A, hOx2R; type: cell-based; details: for Kd: cells expressing human orexin 2 receptor, IC50 vs orexin A converted by Cheng and Prusoff correction
Procedure: as §4, §5, §6, §7, §8

Compound: CN(C(=O)c1ccc(C(F)(F)F)cc1)[C@H](CCNC(=O)c1ccccn1)Cc1ccccc1 [Example 73, Pyridine-2-carboxylic acid {(S)-3-[methyl-(4-trifluoromethyl-benzoyl)-amino]-4-phenyl-butyl}-amide]
- Kd [1]: > 10000 nM
- Kd [2]: 1920 nM
- Kd [3]: > 10000 nM
- Kd [4]: 1310 nM

Compound: CCOc1cccc(C(=O)N(C)[C@H](CCNC(=O)c2cccn2C)Cc2ccccc2)c1 [Example 121, 1-Methyl-1H-pyrrole-2-carboxylic acid {(S)-3-[(3-ethoxy-benzoyl)-methyl-amino]-4-phenyl-butyl}-amide]
- Kd [1]: 206 nM
- Kd [2]: 696 nM
- Kd [3]: 8 nM
- Kd [4]: 2 nM

Compound: C[C@H](CNC(=O)c1ccccn1)[C@H](Cc1ccccc1)N(C)C(=O)c1ccccc1 [Example 112, Pyridine-2-carboxylic acid [(2R,3S)-3-(benzoyl-methyl-amino)-2-methyl-4-phenyl-butyl]-amide]
- Kd [1]: 477 nM
- Kd [2]: 415 nM
- Kd [3]: 1160 nM
- Kd [4]: 498 nM

Compound: CN(C(=O)c1ccccc1)[C@H](CCNC(=O)c1ccccn1)Cc1ccc(Cl)cc1 [Example 70, Pyridine-2-carboxylic acid [(S)-3-(benzoyl-methyl-amino)-4-(4-chloro-phenyl)-butyl]-amide]
- Kd [1]: > 10000 nM
- inhibition at 10 µM [2]: 0%
- Kd [3]: 8310 nM
- inhibition at 10 µM ([4]; measured at a concentration of 10 μM of compound (cells marked ^a)): 29%

Compound: Cc1cccc(C(=O)N(C)[C@H](CCNC(=O)c2ccccn2)Cc2ccccc2)c1 [Example 96, Pyridine-2-carboxylic acid {(S)-3-[methyl-(3-methyl-benzoyl)-amino]-4-phenyl-butyl}-amide]
- Kd [1]: 247 nM
- Kd [2]: 474 nM
- Kd [3]: 133 nM
- Kd [4]: 74 nM

Compound: CN(C(=O)c1ccc2[nH]ccc2c1)[C@H](CCNC(=O)c1nc2ccccc2n1C)Cc1ccccc1 [Example 81, 1-Methyl-1H-benzoimidazole-2-carboxylic acid {(S)-3-[(1H-indole-5-carbonyl)-methyl-amino]-4-phenyl-butyl}-amide]
- Kd [1]: 6 nM
- Kd [2]: 12 nM
- Kd [3]: 23 nM
- Kd [4]: 13 nM

Compound: Cc1cccc(C(=O)N(C)[C@H](CCNC(=O)c2cccn2C)Cc2ccccc2)c1 [Example 119, 1-Methyl-1H-pyrrole-2-carboxylic acid {(8)-3-[methyl-(3-methyl-benzoyl)-amino]-4-phenyl-butyl}-amide]
- Kd [1]: 249 nM
- Kd [2]: 534 nM
- Kd [3]: 14 nM
- Kd [4]: 4 nM

Compound: CN(C(=O)c1ccc2c(c1)CCO2)[C@H](CCNC(=O)c1ccccn1)Cc1ccccc1 [Example 29, Pyridine-2-carboxylic acid {(8)-3-[(2,3-dihydro-benzofuran-5-carbonyl)-methyl-amino]-4-phenyl-butyl}-amide]
- Kd [1]: 518 nM
- Kd [2]: 2190 nM
- Kd [3]: 374 nM
- Kd [4]: 157 nM

Compound: Cc1nc2sccn2c1C(=O)NCC[C@H](Cc1ccccc1)N(C)C(=O)c1ccccc1 [Example 33, 6-Methyl-imidazo[2,1-b]thiazole-5-carboxylic acid [(S)-3-(benzoyl-methyl-amino)-4-phenyl-butyl]-amide]
- Kd [1]: 5730 nM
- Kd [2]: 1960 nM
- Kd [3]: 450 nM
- Kd [4]: 76 nM

Compound: CN(C(=O)c1cccc2ccn(C)c12)[C@H](CCNC(=O)c1ccccn1)Cc1ccccc1 [Example 36, 1-Methyl-1H-indole-7-carboxylic acid {(S)-1-benzyl-3-[(pyridine-2-carbonyl)-amino]-propyl}-methyl-amide]
- Kd [1]: 853 nM
- inhibition at 10 µM [2]: 37%
- Kd [3]: 468 nM
- Kd [4]: 565 nM

Compound: CN(C(=O)c1ccc2ccccc2c1)[C@H](CCNC(=O)c1nc2ccccc2n1C)Cc1ccccc1 [Example 44, 1-Methyl-1H-benzoimidazole-2-carboxylic acid {(S)-3-[methyl-(naphthalene-2-carbonyl)-amino]-4-phenyl-butyl}-amide]
- Kd [1]: 82 nM
- Kd [2]: 33 nM
- Kd [3]: 781 nM
- Kd [4]: 90 nM

Compound: CN(C(=O)c1ccccc1)[C@H](CCNC(=O)c1ccccn1)Cc1ccccc1 [Example 37, Pyridine-2-carboxylic acid [(S)-3-(benzoyl-methyl-amino)-4-phenyl-butyl]-amide]
- Kd [1]: 358 nM
- Kd [2]: 836 nM
- Kd [3]: 479 nM
- Kd [4]: 440 nM

Compound: CCCN(C(=O)c1ccc2c(c1)OCO2)[C@H](CCNC(=O)c1ccccn1)Cc1ccccc1 [Example 13, Pyridine-2-carboxylic acid {(S)-3-[(benzo[1,3]dioxole-5-carbonyl)-propyl-amino]-4-phenyl-butyl}-amide]
- Kd [1]: 810 nM
- Kd [2]: 2210 nM
- Kd [3]: 107 nM
- Kd [4]: 74 nM

Compound: CN(C(=O)c1ccc2ccccc2c1)[C@H](CCNC(=O)c1nc2ccccc2n1C)Cc1ccc(F)cc1 [Example 57, 1-Methyl-1H-benzoimidazole-2-carboxylic acid {(S)-4-(4-fluoro-phenyl)-3-[methyl-(naphthalene-2-carbonyl)-amino]-butyl}-amide]
- Kd [1]: 443 nM
- Kd [2]: 12 nM
- Kd [3]: 2850 nM
- Kd [4]: 26 nM

Compound: CN(C(=O)c1cc(C(F)(F)F)cc(C(F)(F)F)c1)[C@H](CCNC(=O)c1ccccn1)Cc1ccccc1 [Example 5, Pyridine-2-carboxylic acid {(S)-3-[(3,5-bis-trifluoromethyl-benzoyl)-methyl-amino]-4-phenyl-butyl}-amide]
- Kd [1]: 999 nM
- Kd [2]: 511 nM
- Kd [3]: 18 nM
- Kd [4]: 8 nM

Compound: COc1ccc(C(=O)N(C)[C@H](CCNC(=O)c2ccccn2)Cc2ccccc2)cc1 [Example 42, Pyridine-2-carboxylic acid {(S)-3-[(4-methoxy-benzoyl)-methyl-amino]-4-phenyl-butyl}-amide]
- Kd [1]: 1730 nM
- Kd [2]: 909 nM
- Kd [3]: 688 nM
- Kd [4]: 826 nM

Compound: CN(C(=O)c1ccc2c(c1)OCO2)[C@H](CCNC(=O)c1cc2ccccc2[nH]1)Cc1ccccc1 [Example 14, 1H-Indole-2-carboxylic acid {(S)-3-[(benzo[1,3]dioxole-5-carbonyl)-methyl-amino]-4-phenyl-butyl}-amide]
- Kd [1]: 1070 nM
- Kd [2]: 609 nM
- Kd [3]: 521 nM
- Kd [4]: 106 nM
